Legend:
[1] = test system: MCF-7 mammary tumor cells; assay: cells; assay type: cell-based; settings: Homo sapiens, MCF7, 48 h, read-out: cellular viability relative to the control group
Procedure: A cell viability test was carried out on MCF-7 mammary tumor cells (Michigan Cancer Foundation-7) […] (ER(+) cells) containing receptors for the hormone estrogen.
The MCF-7 cells are in a cell culture medium identical to example 14 and are seeded in 12-well plates at 50000 cells per well for 24 h. 24 hours after seeding, the cells are treated with the solvate vehicle comprising water and ethanol with an ethanol ratio 1‰ and comprising 5α-hydroxy-6β-[2-(1H-imidazol-4-yl)-ethylamino]-cholestan-3β-yl propionate or 5α-hydroxy-6β-[2-(1H-imidazol-4-yl)-ethylamino]-cholestan-3β-ol at 1, 2.5 or 5 μM. The cells are observed in an inverted microscope and photographed with the microscope camera at 24 h and 48 h. The morphological changes of the cells at 1 μM are very slight.
Following these observations, a cell viability test is measured by MTT labeling at 48 hours. This test is based on the use of the tetrazolium salt MTT (3-(4,5-dimethylthiazol-2-yl)-2,5-diphenyltetrazolium bromide). Tetrazolium is reduced by mitochondrial succinate dehydrogenase of active living cells, in formazan, precipitate of violet color. The amount of precipitate formed is proportional to the quantity of living cells but also to the metabolic activity of each cell. […] After 48 hours, the medium is aspirated, the cells are washed with phosphate-buffered saline (PBS) and then incubated with MTT (0.5 mg/ml in PBS) for about 2 hours. The MTT solution is aspirated and then the violet crystals are dissolved in dimethylsulfoxide (DMSO). The OD (optical density) is measured at 540 nm.
The control group is carried out similarly to the study groups without adding the molecules studied in the present text. Compared to the control, a decrease is measured, dependent on the dose of […], in cellular viability in MTT for 5α-hydroxy-6β-[2-(1H-imidazol-4-yl)-ethylamino]-cholestan-3β-yl propionate and 5α-hydroxy-6β-[2-(1H-imidazol-4-yl)-ethylamino]-cholestan-3β-ol.

[2] = target: T1, cholesterol epoxide hydrolase (ChEH) (Homo sapiens, UniProt Q15125); assay: Activity of cholesterol epoxide hydrolase (ChEH) in MCF-7 cells, [14C]5,6α-EC metabolization by TLC; assay type: cell-based; settings: MCF-7, 1 μM, 24 h, [14C]5,6α-EC 0.6 μM
T1 construct: endogenous in cells; host or cells: MCF-7
T1 sequence (Q15125 whole entry): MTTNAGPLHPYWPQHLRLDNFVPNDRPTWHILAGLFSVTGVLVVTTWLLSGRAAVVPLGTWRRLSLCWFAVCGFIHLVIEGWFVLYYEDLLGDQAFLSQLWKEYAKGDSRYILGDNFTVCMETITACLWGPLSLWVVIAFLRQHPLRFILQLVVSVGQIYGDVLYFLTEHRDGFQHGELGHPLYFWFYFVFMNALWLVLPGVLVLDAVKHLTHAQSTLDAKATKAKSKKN
From the text: The compounds 5,6α-epoxycholesterol (5,6α-EC) and 5,6β-epoxycholesterol (5,6β-EC) are oxysterols involved in the anticancer pharmacology of tamoxifen, a widely used antitumor drug. They are both metabolized in cholestan-3β,5α,6β-triol (CT) by the enzyme cholesterol-5,6-epoxide hydrolase (ChEH), and CT is metabolized by the enzyme HSD11B2 (11β-hydroxysteroid dehydrogenase 2) to 6-oxo-cholestan-3β,5α-diol (OCDO), an oncosterone tumor promoter.
MCF-7 cells are in a cell culture medium identical to example 20 and are seeded in 6-well plates at 150000 cells per well with 3 wells per treatment condition. 24 h after seeding, the MCF-7 cells are treated with [^14C]5,6α-EC (stock solution 1000×: 0.6 mM; 20 μCi/μmol; final concentration 0.6 μM) alone or in combination with tamoxifen (tam). Tamoxifen is used as positive control of the study compounds. The treatment with the compound according to the invention is carried out at a concentration of 1 μM.
After 24 hours of treatment, the media are collected and lipid extracts are prepared from the cell pellets by extraction with 100 μL of chloroform, 400 μL of methanol and 300 μL of water. The lipid extracts are analyzed by thin-layer chromatography (TLC) using ethyl acetate (EtOAc) as eluent. The analysis is carried out using a plate reader and then by autoradiography.

[3] = test system: Neuro2a cells; assay: Cytotoxicity on Neuro2a cells, trypan blue assay; assay type: cell-based, murine; settings: 48 h; for percentage of live cells compared to the control group: 100 nM
Procedure: For this experiment, a cell culture medium was prepared. The culture medium consists of a Dulbecco's Modified Eagle Medium (DMEM) marketed by Westburg under the reference LO BE12-604F), comprising 4.5 g/L glucose with L-glutamine, to which 10% of fetal calf serum (FCS) is added. Neuro2a cells (murine neuroblastoma) were introduced into this culture medium.
24-well plates were seeded with 10000 Neuro2a cells per well. After culture for 72 hours (h) in normal conditions, i.e. in an incubator at a temperature of 37° C. at 5% CO2, the Neuro2a cells were treated for 48 h with 5α-hydroxy-6β-[2-(1H-imidazol-4-yl)-ethylamino]-cholestan-3β-yl-propionate and 5α-hydroxy-6β-[2-(1H-imidazol-4-yl)-ethylamino]-cholestan-3β-ol at 100 nM, 1 μM and 10 μM. A control (CTL) is also carried out using the protocol described above but without treatment with the aforementioned compounds. Cell survival is quantified by a trypan blue assay with automatic counting with the Biorad TC20 apparatus (TC20™ Automated Cell Counter). The trypan blue assay is based on the integrity of the cell membrane, which is broken in dead cells. The trypan blue stains the dead cells blue. The Biorad TC20 cell counter counts the proportions of blue cells and non-blue cells, relative to the cell percentages.

[4] = test system: 4T1 tumors; assay: Effect on 4T1 tumor growth and survival in vivo; settings: 4T1 tumors in Balb/c mice, 40 mg/kg by stomach tube every day; for Median survival: Kaplan-Meier; for Inhibition of tumor growth: day 8 vs day 0
Procedure: All the procedures on the animals were carried out in accordance with the guidelines of our institution after being approved by the ethics committee. The 4T1 cells were cultured as before, and were dissociated in trypsin and washed twice in cold PBS and resuspended in PBS at 1.5 million/mL. The 4T1 tumors were obtained by subcutaneous transplantation of 0.150 million cells in 100 μL in the flank of female Balb/c mice (9 weeks, January). When the tumors reached a volume of 50-100 mm^3, the mice were fed by stomach tube with 40 mg/kg of DX101 or 40 mg/kg of […] or the control vehicle (water). The treatment was carried out every day until the end of the experiment (tumor volume >1000 mm^3). The tumor volume was determined every day using a caliper gauge and calculated from the formula: ½×(Length*Width^2). The percentage inhibition of tumor growth was determined from the following formula: 100×(1−(tumor volume, day 8/tumor volume day 0)DX107)/(1−(tumor volume, day 8/tumor volume day 0)vehicle).
The Kaplan-Meier method was used for comparing the animals' survival.

## CC(C)CCC[C@@H](C)[C@H]1CC[C@H]2[C@@H]3C[C@@H](NCCc4c[nH]cn4)[C@@]4(O)C[C@@H](O)CC[C@]4(C)[C@H]3CC[C@]12C [DX101, 5α-hydroxy-6β-[2-(1H-imidazol-4-yl)-ethylamino]-cholestan-3β-ol, reference compound]
[1]
  viability at 2.5 µM: ~60%
  viability at 5 µM: ~18%
[2]
  inhibition of ChEH activity: almost total (trace of CT)
[3]
  percentage of live cells compared to the control group: unchanged
[3]; 1 μM
  percentage cell survival relative to the control group: 85.42±4.73%
[3]; 10 μM
  percentage cell survival relative to the control group: 43.25%
[4]
  Median survival: 9 days
  Inhibition of tumor growth: 58%

## CCC(=O)O[C@H]1CC[C@]2(C)[C@H]3CC[C@]4(C)[C@@H]([C@H](C)CCCC(C)C)CC[C@H]4[C@@H]3C[C@@H](NCCc3c[nH]cn3)[C@@]2(O)C1 [DX107, 5α-hydroxy-6β-[2-(1H-imidazol-4-yl)ethylamino]cholestan-3β-yl propionate]
[1]
  viability at 2.5 µM: ~95%
  viability at 5 µM: ~18%
[2]
  inhibition of ChEH activity: inhibition of ChEH is observed relative to the control (1), but it is less than the positive control (2)
[3]
  percentage of live cells compared to the control group: unchanged
[3]; 1 μM
  percentage cell survival relative to the control group: 84.08±4.09%
[3]; 10 μM
  percentage cell survival relative to the control group: 30.46±5.22%
[4]
  Median survival: 14 days
  Inhibition of tumor growth: 78%

Source: patent US20240002429A1, “PRODRUG OF 5a-HYDROXY-6ß-[2-(1H-IMIDAZOL-4-YL)ETHYLAMINO]CHOLESTAN-3ß-OL AND PHARMACEUTICAL COMPOSITIONS COMPRISING SAME FOR USE IN THE TREATMENT OF CANCER” (priority 2020, published 2024)
